Data: US20230348866A1, “BI[…] FOR THE PRODUCTION OF CANNABINOIDS AND OTHER […]” (The Regents of the University of California, priority 2019, published 2023)

Legend:
[1] = tested on: MatB pathway (RpMatB, CsAAE3, CsOLS, CsOAC); experiment: OA/DA production using the MatB pathway with additives; format: biochemical; conditions: titer at 4 hours relative to control
Experimental: (§1) OA/DA Reaction Conditions using MatB. The conditions for reactions using RpMatB to produce malonyl-CoA were as follows: 15 mM malonate, 5 mM hexanoate or 5 mM butyrate, 1 mM CoA, 4 mM ATP, 25 mM creatine phosphate, 10 mM KCl, 5 mM MgCl2 and 50 mM Tris pH 8.0, 1.3 μM RpMatB, 4.9 μM CsAAE3, 2.9 μM CsOLS, 46.6 μM CsOAC, 7.6 μM GsPpase, 2.6 μM ADK and 2 units of CPK (from Sigma Aldrich). For the additive reactions GPP (0.5-2 mM), OA (0.25-2 mM) and DA (0.25-5 mM) were added before the reaction was initiated.
For the time course, the reactions were quenched (see below) at various time points between 5 mins and 5 hours. The reactions with additives were quenched at 4 hours.
HPLC Sample Analysis. All samples were quenched by 4-fold dilution into methanol (samples with a higher concentration of analyte were diluted up to 10-fold). The protein precipitate was removed by centrifugation at 16,000×g for 5 minutes and the supernatant was transferred to an LC vial for analysis.
Samples were analyzed by reverse phase chromatography on a Syncronis C8 column (4.6×100 mm) using a Thermo Ultimate 3000 HPLC. The column compartment temperature was set to 40° C., and the flow rate was 1 mL/min. The sample inject volume was 20 μL (full loop). The compounds were separated using a gradient elution with water+0.1% TFA (solvent A) and acetonitrile+0.1% TFA (solvent B) as the mobile phase. Solvent B was held at 20% for the first minute. Then solvent B was increased to 95% B over 4 minutes, and held at 95% B for 3 minutes. The column was then re-equilibrated to 20% B for three minutes, for a total run time of 11 minutes. Standards were used to identify the retention time, and to produce an external standard curve for quantification.

OLS = target: T1, OLS (Cannabis sativa, UniProt B1Q2B6); experiment: OLS activity assay (inhibition by OA/DA); format: biochemical, C. sativa; conditions: for inhibition of OLS activity: individual enzymes screened, 250 μM OA or 1 mM DA
T1 construct: CsAAE3, CsOLS and CsOAC were synthesized and cloned into the pET28(+) vector with Nde1/Xho1 restriction sites; made in house; host or cells: E. coli C43 BL21 (DE3)
T1 sequence (B1Q2B6 with tags, fused parts or gaps): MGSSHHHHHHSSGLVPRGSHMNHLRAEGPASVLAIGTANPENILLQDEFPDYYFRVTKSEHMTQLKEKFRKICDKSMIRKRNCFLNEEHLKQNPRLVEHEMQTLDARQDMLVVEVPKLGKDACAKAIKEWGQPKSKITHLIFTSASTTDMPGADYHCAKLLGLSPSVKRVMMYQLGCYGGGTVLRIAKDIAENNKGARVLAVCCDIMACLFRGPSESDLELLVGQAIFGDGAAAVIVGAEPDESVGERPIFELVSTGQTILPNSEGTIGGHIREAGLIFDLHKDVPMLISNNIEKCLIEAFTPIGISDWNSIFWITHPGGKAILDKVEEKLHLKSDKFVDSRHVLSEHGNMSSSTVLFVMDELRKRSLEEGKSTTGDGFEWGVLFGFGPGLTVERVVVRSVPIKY
Experimental: OLS Activity Assay. For the inhibition experiments the conditions were altered to: 1 mM malonyl-CoA, 400 μM hexanoyl-CoA in 50 mM citrate buffer, pH 5.5 in a final volume of 200 μL. Either 1% ethanol, 250 μM OA or 1 mM DA was added to the reaction, and then the reactions were initiated by adding 0.65 mg/mL OLS. 50 μL aliquots were quenched at 2, 4, 6 and 8 minutes in 150 μL of methanol. The reactions were vortexed briefly and centrifuged at 16,000×g for 2 minutes to pellet the proteins. The supernatant was analyzed by HPLC. The raw peak areas of HTAL, PDAL and olivetol were summed and plotted against time to determine the rate. The rate of the OA supplemented reaction and the DA supplemented reaction were normalized to the ethanol control.

OA pathway = experiment: RpMatB reaction system with added GPP and NphB M31^S; format: biochemical; conditions: increasing GPP (0.5-2 mM)
Experimental: as §1
In an effort to reduce OA/DA inhibition, experiments were performed to remove OA/DA from the reaction as it is made by converting it directly into CBGA/CBGVA. To test this GPP and a stabilized CBGA synthase were added to the system (FIG. 6). The CBGA synthase used, NphB M31^S, is a stabilized version of the soluble enzyme designed previously (Valliere et al., Nat. Commun. 10:565, 2019). […] Experiments were performed to test the effect of GPP concentration on OA production. At just 500 μM GPP, OA production decreased 40% percent (FIG. 2C).

SMILES | reduction of OA production ([1]; 1 mM DA added at time zero) | inhibition of OLS activity (OLS) | decrease of OA production ([1]; 500 μM GPP added) | overall production of OA and CBGA (OA pathway) | reduction of DA production ([1]; 1 mM OA added at time zero) | inhibition of enzyme activity, comparison among enzymes (OLS; reaction relevant conditions)
CCCc1cc(O)cc(O)c1C(=O)O [DA, divarinic acid] | 30% | strongly inhibited | – | – | – | –
CC(C)=CCC/C(C)=C/COP(=O)(O)OP(=O)(O)O [GPP, geranyl pyrophosphate] | – | – | 40% | decrease | – | –
CCCCCc1cc(O)cc(O)c1C(=O)O [OA, olivetolic acid] | – | strongly inhibited | – | – | 90% | CsOLS is the most inhibited
